In ChEMBL document CHEMBL4340528, “Profiling withanolide A for therapeutic targets in neurodegenerative diseases” (Bioorg Med Chem, 2019) one finds Activity and log2FC data, which are given here for ten molecules.

For series [1], the system named is SH-SY5Y. The series is described as follows: Induction of neurite outgrowth in human SH-SY5Y cells assessed as increase in neurite length of more than 50 micrometer by measuring cell differentiation at 1 uM incubated for 6 days by Giemsa staining based phase contrast microscopic analysis relative to control. Type of series: functional.
The subject of series [2] is SH-SY5Y. Kind of series: Induction of neurite outgrowth in human SH-SY5Y cells assessed as increase in neurite length of more than 50 micrometer by measuring cell differentiation at 1 uM in presence of dexamethasone incubated for 6 days by Giemsa staining based phase contrast microscopic analysis relative to control. The series is classed as functional.
Series [3] deals with SH-SY5Y. The series is described as follows: Induction of neurite outgrowth in human SH-SY5Y cells assessed as increase in neurite length of more than 50 micrometer by measuring cell differentiation at 1 uM in presence of mifepristone incubated for 6 days by Giemsa staining based phase contrast microscopic analysis relative to control. Type of series: functional.
Series [4] concerns the target Cytochrome b5 type B (Homo sapiens) (UniProt O43169). As to conditions: A549, Lysate; call rule not given here.
In series [5] the target is Keratin, type II cuticular Hb1 (Homo sapiens) (UniProt Q14533). To be noted: A549, Lysate, pooled result: one value given for 5 cell lines, strains, targets or settings.
Description: Binding affinity to KRT81 in human A549 cells lysates grown on SILAC media at 10 uM incubated for 1 hr by LC-MS/MS analysis relative to untreated control
For series [6], the target named is Mitochondrial carrier homolog 2 (Homo sapiens) (UniProt Q9Y6C9). To be noted: A549, Lysate.
Description: Binding affinity to MTCH2 in human A549 cells lysates grown on SILAC media at 10 uM incubated for 1 hr by LC-MS/MS analysis relative to untreated control
Series [7] has as its target Mitochondrial import receptor subunit TOM40 homolog (Homo sapiens) (UniProt O96008). As to conditions: A549, Lysate.
Description: Binding affinity to TOMM40 in human A549 cells lysates grown on SILAC media at 10 uM incubated for 1 hr by LC-MS/MS analysis relative to untreated control
Series [8] addresses Non-selective voltage-gated ion channel VDAC2 (Homo sapiens) (UniProt P45880). As to conditions: A549, Lysate.
Description: Binding affinity to VDAC2 in human A549 cells lysates grown on SILAC media at 10 uM incubated for 1 hr by LC-MS/MS analysis relative to untreated control
Series [9] deals with Non-selective voltage-gated ion channel VDAC3 (Homo sapiens) (UniProt Q9Y277). As to conditions: A549, Lysate.
Description: Binding affinity to VDAC3 in human A549 cells lysates grown on SILAC media at 10 uM incubated for 1 hr by LC-MS/MS analysis relative to untreated control
The target in series [10] is Cytoskeleton-associated protein 4 (Homo sapiens) (UniProt Q07065). To be noted: A549, Lysate.
Description: Binding affinity to CKAP4 in human A549 cells lysates grown on SILAC media at 10 uM incubated for 1 hr by LC-MS/MS analysis relative to untreated control
The target of series [11] is Sarcoplasmic/endoplasmic reticulum calcium ATPase 2 (Homo sapiens) (UniProt P16615). To be noted: A549, Lysate.
Description: Binding affinity to ATP2A2 in human A549 cells lysates grown on SILAC media at 10 uM incubated for 1 hr by LC-MS/MS analysis relative to untreated control
In series [12] the target is Glucocorticoid receptor (Homo sapiens) (UniProt P04150). To be noted: A549, Lysate.
Description: Binding affinity to NR3C1 in human A549 cells lysates grown on SILAC media at 10 uM incubated for 1 hr by LC-MS/MS analysis relative to untreated control
The target in series [13] is Glutathione S-transferase 3, mitochondrial (Homo sapiens) (UniProt O14880). To be noted: A549, Lysate.
Description: Binding affinity to MGST3 in human A549 cells lysates grown on SILAC media at 10 uM incubated for 1 hr by LC-MS/MS analysis relative to untreated control
The target in series [14] is Serine/threonine-protein kinase greatwall (Homo sapiens) (UniProt Q96GX5). As to conditions: A549, Lysate.
Description: Binding affinity to MASTL in human A549 cells lysates grown on SILAC media at 10 uM incubated for 1 hr by LC-MS/MS analysis relative to untreated control
The target in series [15] is WD repeat and HMG-box DNA-binding protein 1 (Homo sapiens) (UniProt O75717). To be noted: A549, Lysate.
Description: Binding affinity to WDHD1 in human A549 cells lysates grown on SILAC media at 10 uM incubated for 1 hr by LC-MS/MS analysis relative to untreated control
Series [16] has as its target Transcription intermediary factor 1-beta (Homo sapiens) (UniProt Q13263). As to conditions: A549, Lysate.
Description: Binding affinity to TRIM28 in human A549 cells lysates grown on SILAC media at 10 uM incubated for 1 hr by LC-MS/MS analysis relative to untreated control
Series [17] deals with Isocitrate dehydrogenase [NADP] cytoplasmic (Homo sapiens) (UniProt O75874). To be noted: A549, Lysate.
Description: Binding affinity to IDH1 in human A549 cells lysates grown on SILAC media at 10 uM incubated for 1 hr by LC-MS/MS analysis relative to untreated control
Series [18] addresses Heterogeneous nuclear ribonucleoprotein F (Homo sapiens) (UniProt P52597). To be noted: A549, Lysate.
Description: Binding affinity to HNRNPF in human A549 cells lysates grown on SILAC media at 10 uM incubated for 1 hr by LC-MS/MS analysis relative to untreated control
The target of series [19] is Polyubiquitin-B (Homo sapiens) (UniProt P0CG47). To be noted: A549, Lysate, pooled result: one value given for 5 cell lines, strains, targets or settings.
Description: Binding affinity to UBB in human A549 cells lysates grown on SILAC media at 10 uM incubated for 1 hr by LC-MS/MS analysis relative to untreated control
Series [20] concerns the target Glutamate--cysteine ligase regulatory subunit (Homo sapiens) (UniProt P48507). As to conditions: A549, Lysate.
Description: Binding affinity to GCLM in human A549 cells lysates grown on SILAC media at 10 uM incubated for 1 hr by LC-MS/MS analysis relative to untreated control
In series [21] the target is Heat shock protein beta-1 (Homo sapiens) (UniProt P04792). As to conditions: A549, Lysate.
Description: Binding affinity to HSPB1 in human A549 cells lysates grown on SILAC media at 10 uM incubated for 1 hr by LC-MS/MS analysis relative to untreated control
Series [22] addresses Aldehyde dehydrogenase 1A1 (Homo sapiens) (UniProt P00352). To be noted: A549, Lysate.
Description: Binding affinity to ALDH1A1 in human A549 cells lysates grown on SILAC media at 10 uM incubated for 1 hr by LC-MS/MS analysis relative to untreated control
Series [23] addresses MKI67 FHA domain-interacting nucleolar phosphoprotein (Homo sapiens) (UniProt Q9BYG3). As to conditions: A549, Lysate.
Description: Binding affinity to MKI67 in human A549 cells lysates grown on SILAC media at 10 uM incubated for 1 hr by LC-MS/MS analysis relative to untreated control
The target in series [24] is Aldo-keto reductase family 1 member C2 (Homo sapiens) (UniProt P52895). To be noted: A549, Lysate.
Description: Binding affinity to AKR1C2 in human A549 cells lysates grown on SILAC media at 10 uM incubated for 1 hr by LC-MS/MS analysis relative to untreated control
Series [25] deals with T1, 1,25-dihydroxyvitamin D(3) 24-hydroxylase, mitochondrial (Homo sapiens, UniProt Q07973).
T1 sequence (Q07973 whole entry): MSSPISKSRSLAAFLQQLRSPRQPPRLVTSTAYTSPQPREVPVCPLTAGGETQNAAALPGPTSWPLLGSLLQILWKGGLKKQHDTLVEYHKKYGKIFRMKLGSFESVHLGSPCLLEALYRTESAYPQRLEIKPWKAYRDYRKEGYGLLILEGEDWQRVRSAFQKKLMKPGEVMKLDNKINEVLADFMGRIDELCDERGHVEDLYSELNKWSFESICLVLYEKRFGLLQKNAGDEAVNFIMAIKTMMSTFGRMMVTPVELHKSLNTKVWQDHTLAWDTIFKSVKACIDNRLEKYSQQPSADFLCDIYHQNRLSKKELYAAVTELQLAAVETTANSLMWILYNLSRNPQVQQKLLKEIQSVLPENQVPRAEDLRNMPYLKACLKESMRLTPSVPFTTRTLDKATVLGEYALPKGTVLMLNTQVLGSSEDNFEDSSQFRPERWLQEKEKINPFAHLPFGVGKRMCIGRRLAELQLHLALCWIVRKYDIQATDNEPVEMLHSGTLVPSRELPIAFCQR
The series is described as follows: Binding affinity to CYP24A1 in human A549 cells lysates grown on SILAC media at 10 uM incubated for 1 hr by LC-MS/MS analysis. Type of series: subcellular, Lysate. As to conditions: a549, 1 h.

The target of series [26] is Reticulon-4 (Homo sapiens) (UniProt Q9NQC3). As to conditions: A549, Lysate.
Description: Binding affinity to RTN4 in human A549 cells lysates grown on SILAC media at 10 uM incubated for 1 hr by LC-MS/MS analysis relative to untreated control
The target of series [27] is SAFB-like transcription modulator (Homo sapiens) (UniProt Q9NWH9). As to conditions: A549, Lysate.
The target in series [28] is Minor histocompatibility antigen H13 (Homo sapiens) (UniProt Q8TCT9). As to conditions: A549, Lysate.
Description: Binding affinity to HM13 in human A549 cells lysates grown on SILAC media at 10 uM incubated for 1 hr by LC-MS/MS analysis relative to untreated control
The target in series [29] is Perilipin-3 (Homo sapiens) (UniProt O60664). To be noted: A549, Lysate.
Description: Binding affinity to PLIN3 in human A549 cells lysates grown on SILAC media at 10 uM incubated for 1 hr by LC-MS/MS analysis relative to untreated control
Series [30] has as its target Prostaglandin E synthase 2 (Homo sapiens) (UniProt Q9H7Z7). As to conditions: A549, Lysate.
Description: Binding affinity to PTGES2 in human A549 cells lysates grown on SILAC media at 10 uM incubated for 1 hr by LC-MS/MS analysis relative to untreated control
Series [31] deals with T1, 1,25-dihydroxyvitamin D(3) 24-hydroxylase, mitochondrial. Kind of series: Binding affinity to CYP24A1 in human A549 cells lysates grown on SILAC media at 10 uM incubated for 1 hr by LC-MS/MS analysis relative to untreated control. Type of series: subcellular, Lysate. As to conditions: a549, 1 h.
Series [32] deals with Trifunctional enzyme subunit beta, mitochondrial (Homo sapiens) (UniProt P55084). As to conditions: A549, Lysate.
Description: Binding affinity to HADHB in human A549 cells lysates grown on SILAC media at 10 uM incubated for 1 hr by LC-MS/MS analysis relative to untreated control
The target of series [33] is Heme oxygenase 2 (Homo sapiens) (UniProt P30519). To be noted: A549, Lysate.
Description: Binding affinity to HMOX2 in human A549 cells lysates grown on SILAC media at 10 uM incubated for 1 hr by LC-MS/MS analysis relative to untreated control
Series [34] addresses Glutathione S-transferase omega-1 (Homo sapiens) (UniProt P78417). As to conditions: A549, Lysate.
Description: Binding affinity to GSTO1 in human A549 cells lysates grown on SILAC media at 10 uM incubated for 1 hr by LC-MS/MS analysis relative to untreated control
Series [35] has as its target NPC intracellular cholesterol transporter 1 (Homo sapiens) (UniProt O15118). As to conditions: A549, Lysate.
Description: Binding affinity to NPC1 in human A549 cells lysates grown on SILAC media at 10 uM incubated for 1 hr by LC-MS/MS analysis relative to untreated control
For series [36], the target named is G patch domain-containing protein 8 (Homo sapiens) (UniProt Q9UKJ3). To be noted: A549, Lysate.
Description: Binding affinity to GPATCH8 in human A549 cells lysates grown on SILAC media at 10 uM incubated for 1 hr by LC-MS/MS analysis relative to untreated control
Series [37] deals with Antigen peptide transporter 1 (Homo sapiens) (UniProt Q03518). To be noted: A549, Lysate.
Description: Binding affinity to TAP1 in human A549 cells lysates grown on SILAC media at 10 uM incubated for 1 hr by LC-MS/MS analysis relative to untreated control
The target in series [38] is Mitochondrial antiviral-signaling protein (Homo sapiens) (UniProt Q7Z434). As to conditions: A549, Lysate.
Description: Binding affinity to MAVS in human A549 cells lysates grown on SILAC media at 10 uM incubated for 1 hr by LC-MS/MS analysis relative to untreated control
Series [39] has as its target Histidine--tRNA ligase, cytoplasmic (Homo sapiens) (UniProt P12081). To be noted: A549, Lysate.
Description: Binding affinity to HARS in human A549 cells lysates grown on SILAC media at 10 uM incubated for 1 hr by LC-MS/MS analysis relative to untreated control
Series [40] has as its target Ubiquitin carboxyl-terminal hydrolase 5 (Homo sapiens) (UniProt P45974). As to conditions: A549, Lysate.
Description: Binding affinity to USP5 in human A549 cells lysates grown on SILAC media at 10 uM incubated for 1 hr by LC-MS/MS analysis relative to untreated control
In series [41] the target is Neutral cholesterol ester hydrolase 1 (Homo sapiens) (UniProt Q6PIU2). To be noted: A549, Lysate.
Description: Binding affinity to NCEH1 in human A549 cells lysates grown on SILAC media at 10 uM incubated for 1 hr by LC-MS/MS analysis relative to untreated control
Series [42] has as its target Ubiquitin carboxyl-terminal hydrolase 10 (Homo sapiens) (UniProt Q14694). As to conditions: A549, Lysate.
Description: Binding affinity to USP10 in human A549 cells lysates grown on SILAC media at 10 uM incubated for 1 hr by LC-MS/MS analysis relative to untreated control
Series [43] concerns the target von Willebrand factor (Homo sapiens) (UniProt P04275). As to conditions: A549, Lysate.
Description: Binding affinity to VWF in human A549 cells lysates grown on SILAC media at 10 uM incubated for 1 hr by LC-MS/MS analysis relative to untreated control
The target in series [44] is Carnitine O-palmitoyltransferase 1, liver isoform (Homo sapiens) (UniProt P50416). To be noted: A549, Lysate.
Description: Binding affinity to CPT1A in human A549 cells lysates grown on SILAC media at 10 uM incubated for 1 hr by LC-MS/MS analysis relative to untreated control

Chain of Cytoskeleton-associated protein 4 (Homo sapiens) (Q07065 whole entry): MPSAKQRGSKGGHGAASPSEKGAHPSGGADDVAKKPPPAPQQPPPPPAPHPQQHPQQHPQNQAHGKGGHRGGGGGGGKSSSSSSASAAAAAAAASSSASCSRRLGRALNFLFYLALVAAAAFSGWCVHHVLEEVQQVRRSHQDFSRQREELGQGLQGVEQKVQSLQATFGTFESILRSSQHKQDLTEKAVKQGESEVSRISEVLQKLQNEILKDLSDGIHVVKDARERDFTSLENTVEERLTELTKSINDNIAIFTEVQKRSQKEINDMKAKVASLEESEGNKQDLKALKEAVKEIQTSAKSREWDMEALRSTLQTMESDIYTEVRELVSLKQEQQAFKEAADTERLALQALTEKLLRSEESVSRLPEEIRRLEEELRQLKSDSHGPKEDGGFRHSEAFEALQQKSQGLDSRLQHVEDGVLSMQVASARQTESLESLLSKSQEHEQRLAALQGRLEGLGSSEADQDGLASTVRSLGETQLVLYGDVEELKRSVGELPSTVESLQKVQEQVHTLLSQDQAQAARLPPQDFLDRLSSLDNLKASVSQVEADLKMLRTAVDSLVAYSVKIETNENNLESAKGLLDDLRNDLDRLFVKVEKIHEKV
Chain of Non-selective voltage-gated ion channel VDAC3 (Homo sapiens) (Q9Y277 whole entry): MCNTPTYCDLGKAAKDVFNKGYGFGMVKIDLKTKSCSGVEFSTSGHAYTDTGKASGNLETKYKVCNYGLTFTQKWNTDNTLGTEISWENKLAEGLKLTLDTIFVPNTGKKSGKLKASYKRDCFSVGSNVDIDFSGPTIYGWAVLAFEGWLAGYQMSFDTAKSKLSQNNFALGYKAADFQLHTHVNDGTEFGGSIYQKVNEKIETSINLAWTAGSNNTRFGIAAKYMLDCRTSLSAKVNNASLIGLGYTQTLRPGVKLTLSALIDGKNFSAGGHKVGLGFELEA
Chain of Sarcoplasmic/endoplasmic reticulum calcium ATPase 2 (Homo sapiens) (P16615 whole entry): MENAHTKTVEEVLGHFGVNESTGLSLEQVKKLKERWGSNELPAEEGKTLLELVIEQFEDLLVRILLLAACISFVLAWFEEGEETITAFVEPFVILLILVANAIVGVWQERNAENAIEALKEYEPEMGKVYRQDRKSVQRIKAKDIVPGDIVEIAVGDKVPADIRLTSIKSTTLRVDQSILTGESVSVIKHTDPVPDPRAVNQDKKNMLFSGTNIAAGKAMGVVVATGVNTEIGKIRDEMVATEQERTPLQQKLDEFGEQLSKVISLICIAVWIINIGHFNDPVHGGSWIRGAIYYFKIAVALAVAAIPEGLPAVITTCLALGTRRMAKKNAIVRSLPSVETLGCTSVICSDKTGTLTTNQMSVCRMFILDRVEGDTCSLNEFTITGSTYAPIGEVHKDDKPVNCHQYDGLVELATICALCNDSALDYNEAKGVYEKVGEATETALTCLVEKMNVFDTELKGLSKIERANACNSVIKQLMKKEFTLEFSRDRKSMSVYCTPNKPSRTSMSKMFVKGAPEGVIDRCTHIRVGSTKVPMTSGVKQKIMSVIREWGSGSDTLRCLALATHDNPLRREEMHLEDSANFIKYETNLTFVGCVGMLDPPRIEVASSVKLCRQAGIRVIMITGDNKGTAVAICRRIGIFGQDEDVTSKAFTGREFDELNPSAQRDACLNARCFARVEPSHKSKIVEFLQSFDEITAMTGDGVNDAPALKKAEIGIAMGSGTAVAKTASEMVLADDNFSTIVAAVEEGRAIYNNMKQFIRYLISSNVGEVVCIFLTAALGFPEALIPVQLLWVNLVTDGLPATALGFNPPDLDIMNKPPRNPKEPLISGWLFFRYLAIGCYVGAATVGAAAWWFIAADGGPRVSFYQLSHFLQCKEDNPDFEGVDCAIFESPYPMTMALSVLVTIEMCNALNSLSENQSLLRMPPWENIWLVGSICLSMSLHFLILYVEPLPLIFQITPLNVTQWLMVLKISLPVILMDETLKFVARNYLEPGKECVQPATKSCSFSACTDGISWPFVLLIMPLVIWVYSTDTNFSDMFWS
Chain of Mitochondrial import receptor subunit TOM40 homolog (Homo sapiens) (O96008 whole entry): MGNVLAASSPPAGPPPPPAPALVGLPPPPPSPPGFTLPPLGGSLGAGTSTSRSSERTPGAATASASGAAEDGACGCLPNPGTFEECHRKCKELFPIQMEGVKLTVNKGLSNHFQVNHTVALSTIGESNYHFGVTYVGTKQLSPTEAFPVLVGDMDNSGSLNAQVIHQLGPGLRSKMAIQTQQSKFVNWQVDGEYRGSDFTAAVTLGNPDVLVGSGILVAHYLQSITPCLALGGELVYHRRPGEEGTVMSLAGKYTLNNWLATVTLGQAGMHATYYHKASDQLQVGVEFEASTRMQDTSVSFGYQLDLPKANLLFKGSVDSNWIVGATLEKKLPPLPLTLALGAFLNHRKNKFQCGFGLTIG
Chain of Minor histocompatibility antigen H13 (Homo sapiens) (Q8TCT9 whole entry): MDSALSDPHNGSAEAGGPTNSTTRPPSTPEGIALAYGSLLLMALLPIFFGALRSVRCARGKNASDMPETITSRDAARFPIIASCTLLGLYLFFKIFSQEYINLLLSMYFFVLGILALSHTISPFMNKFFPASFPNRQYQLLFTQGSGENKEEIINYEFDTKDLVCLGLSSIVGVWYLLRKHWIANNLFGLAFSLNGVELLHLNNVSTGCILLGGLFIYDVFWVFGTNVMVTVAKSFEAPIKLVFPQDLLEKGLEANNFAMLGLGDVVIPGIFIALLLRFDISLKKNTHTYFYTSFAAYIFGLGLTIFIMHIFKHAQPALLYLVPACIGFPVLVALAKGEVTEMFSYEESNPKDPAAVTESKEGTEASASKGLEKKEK
Chain of Reticulon-4 (Homo sapiens) (Q9NQC3 whole entry): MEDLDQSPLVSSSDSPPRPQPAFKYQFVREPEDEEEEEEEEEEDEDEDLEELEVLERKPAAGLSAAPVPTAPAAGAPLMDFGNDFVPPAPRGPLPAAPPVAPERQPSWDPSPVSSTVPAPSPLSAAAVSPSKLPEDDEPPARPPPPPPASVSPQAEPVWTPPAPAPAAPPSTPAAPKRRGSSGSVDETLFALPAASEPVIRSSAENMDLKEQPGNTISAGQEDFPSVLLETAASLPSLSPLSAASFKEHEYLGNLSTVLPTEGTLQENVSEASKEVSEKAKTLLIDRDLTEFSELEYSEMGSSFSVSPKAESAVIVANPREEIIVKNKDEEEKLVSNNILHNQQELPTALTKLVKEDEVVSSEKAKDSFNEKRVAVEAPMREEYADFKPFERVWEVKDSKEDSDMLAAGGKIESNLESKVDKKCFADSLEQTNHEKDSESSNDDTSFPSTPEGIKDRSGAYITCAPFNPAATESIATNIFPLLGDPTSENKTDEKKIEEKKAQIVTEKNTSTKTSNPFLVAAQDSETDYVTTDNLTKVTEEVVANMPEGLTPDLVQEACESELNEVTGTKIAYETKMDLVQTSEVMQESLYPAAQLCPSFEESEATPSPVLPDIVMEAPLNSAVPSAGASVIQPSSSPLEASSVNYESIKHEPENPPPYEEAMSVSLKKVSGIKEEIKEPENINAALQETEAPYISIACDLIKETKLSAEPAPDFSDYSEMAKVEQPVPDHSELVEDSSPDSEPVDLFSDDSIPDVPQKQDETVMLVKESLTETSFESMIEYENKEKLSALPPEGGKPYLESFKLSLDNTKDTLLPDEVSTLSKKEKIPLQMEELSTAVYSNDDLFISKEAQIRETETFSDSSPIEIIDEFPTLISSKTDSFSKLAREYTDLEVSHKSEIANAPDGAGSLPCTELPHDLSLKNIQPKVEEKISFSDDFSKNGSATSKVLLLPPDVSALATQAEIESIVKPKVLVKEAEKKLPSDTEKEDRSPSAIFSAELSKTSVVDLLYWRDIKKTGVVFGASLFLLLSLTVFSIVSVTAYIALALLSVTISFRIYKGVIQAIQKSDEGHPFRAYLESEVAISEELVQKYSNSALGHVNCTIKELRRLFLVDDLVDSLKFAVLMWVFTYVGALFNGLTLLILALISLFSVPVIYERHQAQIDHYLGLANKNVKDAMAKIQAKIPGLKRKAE
Chain of Non-selective voltage-gated ion channel VDAC2 (Homo sapiens) (P45880 whole entry): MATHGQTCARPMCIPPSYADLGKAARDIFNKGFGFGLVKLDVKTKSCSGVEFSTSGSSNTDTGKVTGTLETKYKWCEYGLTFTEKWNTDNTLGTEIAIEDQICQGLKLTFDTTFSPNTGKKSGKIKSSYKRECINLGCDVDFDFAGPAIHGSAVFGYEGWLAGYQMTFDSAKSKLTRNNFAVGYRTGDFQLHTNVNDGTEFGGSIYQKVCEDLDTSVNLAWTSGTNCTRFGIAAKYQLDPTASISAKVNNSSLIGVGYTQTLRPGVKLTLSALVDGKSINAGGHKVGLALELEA
Chain of Mitochondrial carrier homolog 2 (Homo sapiens) (Q9Y6C9 whole entry): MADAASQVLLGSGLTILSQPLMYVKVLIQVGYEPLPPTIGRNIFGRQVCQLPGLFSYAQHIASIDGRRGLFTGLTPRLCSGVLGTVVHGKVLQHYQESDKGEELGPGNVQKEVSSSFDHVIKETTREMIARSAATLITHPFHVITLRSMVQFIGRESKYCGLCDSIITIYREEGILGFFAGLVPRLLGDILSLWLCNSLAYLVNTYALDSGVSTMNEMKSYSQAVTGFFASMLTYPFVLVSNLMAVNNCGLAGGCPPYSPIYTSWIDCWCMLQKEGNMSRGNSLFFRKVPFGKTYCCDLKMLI
Chain of Prostaglandin E synthase 2 (Homo sapiens) (Q9H7Z7 whole entry): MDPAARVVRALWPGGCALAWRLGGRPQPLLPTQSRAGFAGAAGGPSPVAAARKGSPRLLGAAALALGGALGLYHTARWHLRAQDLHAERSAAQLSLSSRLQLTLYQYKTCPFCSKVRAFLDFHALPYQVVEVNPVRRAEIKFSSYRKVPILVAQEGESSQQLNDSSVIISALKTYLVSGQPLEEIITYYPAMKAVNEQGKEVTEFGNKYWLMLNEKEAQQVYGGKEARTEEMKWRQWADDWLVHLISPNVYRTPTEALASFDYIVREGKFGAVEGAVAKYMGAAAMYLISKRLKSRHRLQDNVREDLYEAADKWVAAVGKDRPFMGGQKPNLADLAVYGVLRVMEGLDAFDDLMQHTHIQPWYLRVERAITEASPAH
Chain of Cytochrome b5 type B (Homo sapiens) (O43169 whole entry): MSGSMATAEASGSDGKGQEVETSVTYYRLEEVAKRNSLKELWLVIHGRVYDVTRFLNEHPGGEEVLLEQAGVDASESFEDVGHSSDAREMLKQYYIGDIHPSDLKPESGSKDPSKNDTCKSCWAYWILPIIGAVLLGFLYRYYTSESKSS

With `C[C@@H]1C[C@H]2[C@@H]3CCC4=CC(=O)C=C[C@]4(C)[C@@]3(F)[C@@H](O)C[C@]2(C)[C@@]1(O)C(=O)CO` [DEXAMETHASONE], the Activity in the series with SH-SY5Y [1] is given as 16%.

Consider `C#CCOC(=O)/C(C)=C(C)\C=C\[C@](C)(O)[C@H]1CC[C@H]2[C@@H]3[C@@H]4O[C@@H]4C4=CC=CC(=O)[C@]4(C)[C@H]3CC[C@@]21C`, for which the results for the Activity in the series on SH-SY5Y [1], with SH-SY5Y [2] and in the series with SH-SY5Y [3] were 41%, 40% and 44%, respectively. Further, the log2FC in series [4] was 4.61; in [5], 3.66; in [6], 2.11; in series [7] it was 2.05; in [8], 4.38; in series [9], 2.96. Further, the log2FC worked out at 1.79 in [10]; 4.85 in [11]; 2.03 in [12]; 3.04 in series [13]; 1.28 in [14]; 1.74 in series [15]. For the same molecule, the log2FC in series [16] is 2.45; in [17] it was 2.46; in [18] it was 1.88; in [19], 1.47; in [20], 2.81; in series [21], 2.14. For the same molecule, the log2FC in [22] was 1.25; in series [23], 1.89; in series [24] it was 1.02.

In the case of `CC1=C(C)C(=O)O[C@@H]([C@](C)(O)[C@H]2CC[C@H]3[C@@H]4[C@@H]5O[C@@H]5[C@@]5(O)CC=CC(=O)[C@]5(C)[C@H]4CC[C@]23C)C1` [WITHANOLIDE A], the results for the Activity in the series on SH-SY5Y [1], in the series with SH-SY5Y [2] and in the series on SH-SY5Y [3] were 46%, 46% and 47%, respectively.

As for `C#CCO/N=C1/C=C[C@]2(C)[C@H]3CC[C@]4(C)[C@@H]([C@@](C)(O)[C@H]5CC(C)=C(C)C(=O)O5)CC[C@H]4[C@@H]3[C@@H]3O[C@@H]3[C@@]2(O)C1`, the Activity in the series with SH-SY5Y [1] turned out to be 55%.

`C#CCO/N=C1\C=CC[C@]2(O)[C@H]3O[C@H]3[C@H]3[C@@H]4CC[C@H]([C@@](C)(O)[C@H]5CC(C)=C(C)C(=O)O5)[C@@]4(C)CC[C@@H]3[C@@]12C`: the Activity entry is reported as “Active” in series [25], 58% in the series on SH-SY5Y [1], 37% in the series with SH-SY5Y [2] and 33% in the series on SH-SY5Y [3]. Besides, the log2FC stood at 3.73 in [26]; 7.33 in [4]; 2.27 in series [27]; 2.25 in series [28]; 0.964 in series [29]; 1.16 in series [30].

For the molecule `C#CCO/N=C1/CC[C@]2(C)[C@H]3CC[C@]4(C)[C@@H]([C@@](C)(O)[C@H]5CC(C)=C(C)C(=O)O5)CC[C@H]4[C@@H]3[C@@H]3O[C@@H]3[C@@]2(O)C1`, the Activity in the series on SH-SY5Y [1] was found to be 50%.

Turning to `CC1=C(/C=C/C(C)=C/C=C/C(C)=C/C(=O)O)C(C)(C)CCC1` [TRETINOIN], the Activity with SH-SY5Y [1] stood at 45%.

As for `C#CCO/N=C1\CCC[C@]2(O)[C@H]3O[C@H]3[C@H]3[C@@H]4CC[C@H]([C@@](C)(O)[C@H]5CC(C)=C(C)C(=O)O5)[C@@]4(C)CC[C@@H]3[C@@]12C`, the Activity in the series on SH-SY5Y [1] is listed as 48%.

In the case of `C#CCOC(=O)/C(C)=C(C)\C=C\[C@](C)(O)[C@H]1CC[C@H]2[C@@H]3[C@@H]4O[C@@H]4[C@@]4(O)CC=CC(=O)[C@]4(C)[C@H]3CC[C@@]21C`, the Activity entry in series [25] is reported as “Active”; with SH-SY5Y [1], 40%; in the series with SH-SY5Y [2], 38%; with SH-SY5Y [3], 40%. Also, the log2FC in series [31] stood at 1.875; in series [26] it was 8.71; in series [28] it was 3.52; in series [30], 4.11; in series [6] it was 1.38; in [7] it was 2.16. The log2FC was determined as 3.01 in series [8]; 1.18 in series [9]; 2.99 in series [10]; 3.3 in series [11]; 1.96 in series [12]; 3.09 in series [32]. The log2FC in series [33] was found to be 7.1; in series [34], 3.99; in [35], 2.08; in series [36], 2.25; in series [37] it was 2.34; in [38] it was 1.62. For the same molecule, the log2FC in series [39] was determined as 1.86; in [40], 1.08; in series [41] it was 1.16; in series [42] it was 1.27; in series [43] it was 1.63; in series [44], 1.41.

As to `CC#C[C@]1(O)CC[C@H]2[C@@H]3CCC4=CC(=O)CCC4=C3[C@@H](c3ccc(N(C)C)cc3)C[C@@]21C` [MIFEPRISTONE], in the series with SH-SY5Y [1], the Activity is listed as 50%.
